# According to US20100316729A1, “Use of Hyperbaric Conditions to Provide Neuroprotection” (AIR PRODUCTS AND CHEMICALS, INC., priority 2007, published 2010):
# “Also recorded” adds a separate entry of the source.
# Test system: organotypic hippocampal slice cultures (focal trauma to the CA1 region)
# Experiment: in vitro model of traumatic brain injury: focal mechanical trauma to organotypic hippocampal slices, injury quantified by propidium iodide fluorescence
# Assay type: cell-based, C57/BL6 mice
# Settings: for effect of added pressure of gas on development of total injury, highest added pressure / effect of added pressure of gas on development of total injury, low added pressures: gas added to 1 atm of 95% air/5% CO2, FIG. 4 / FIG. 5; for effect of added pressure of gas on development of total injury, highest added pressure: highest pressure tested (about 2 atm added, about 3 atm total); for effect of added pressure of gas on development of total injury, low added pressures: low added pressures (up to about 1 atm); for predicted level of normalized injury after 72 hours / observed degree of normalized injury after 72 hours: normobaric; for predicted level of normalized injury after 72 hours: 75% test gas replacing nitrogen, calculated from dashed lines of FIG. 4 / FIG. 5; for observed degree of normalized injury after 72 hours: 75% test gas/20% oxygen/5% CO2 (test gas substituted for nitrogen), 37° C., injury relative to control (75% nitrogen, 1 atm, 72 h) = 1
# Source text: The properties of xenon and other gases were investigated in an in vitro model of traumatic brain injury (as described below in greater detail, under the heading “Example”). The model chosen involved creating a focal mechanical trauma centered on the CA1 region of cultured hippocampal brain slices, and assessing neurological injury using propidium iodide staining. A small solenoid retains a stylus 5 mm above a cultured hippocampal slice which is positioned using a micromanipulator. A fiber-optic light source illuminates the slice from beneath. As shown in (B) the stylus is constrained in a glass capillary and positioned just above the CA1 region of the hippocampus.
# Organotypic hippocampal slice cultures were prepared as reported by Stoppini L, et al in “A simple method for organotypic cultures of nervous tissue” J Neurosci Methods 1991; 37:173-82, subject to some modifications. Briefly, brains were removed from seven-day-old C57/BL6 mice pups (Harlan UK Ltd., Bicester, Oxfordshire, UK) and placed in ice-cold “preparation” medium. The preparation medium contained Gey's balanced salt solution and 5 mg ml^−1 D-glucose (BDH Chemicals Ltd., Poole, Dorset, UK). The hippocampi were removed from the brains and 400 μm thick transverse slices were prepared using a McIllwain tissue chopper. Slices were transferred into ice-cold preparation medium, gently separated and then placed onto tissue culture inserts (Millicell-CM, Millipore Corporation, Billerica, Mass.) which were inserted into a six-well tissue culture plate. The wells contained “growth” medium which consisted of 50% Minimal Essential Media Eagle, 25% Hank's balanced salt solution, 25% inactivated horse serum, 2 mM L-glutamine, 5 mg ml^−1 D-glucose (BDH) and 1% antibiotic-antimycotic suspension. Slices were incubated at 37° C. in a 95% air/5% CO2 humidified atmosphere. The growth medium was changed every three days. Experiments were carried out after 14 days in culture.
# After the hippocampal slices had been in culture for 14 days, the growth medium was changed to “experimental” medium. The experimental medium was serum-free and consisted of 75% Minimal Essential Media Eagle, 25% Hank's balanced salt solution, 2 mM L-glutamine, 5 mg ml^−1 D-glucose, 1% antibiotic-antimycotic suspension and 4.5 μM propidium iodide.
# The trauma to the slices was produced with a specially designed apparatus (FIG. 1) which was based on published descriptions (Adamchik Y, et al “Methods to induce primary and secondary traumatic damage in organotypic hippocampal slice cultures” Brain Res Brain Res Protoc 2000; 5:153-8 and Adembri C, et al “Erythropoietin attenuates post-traumatic injury in organotypic hippocampal slices” J Neurotrauma 2004; 21:[…], 21). Under a stereomicroscope a stylus was positioned 5 mm above the CA1 region of the hippocampus using a three-axis micromanipulator. The stylus dropped onto the slice with an impact of 3.5 μJ when power to a small electromagnet was switched off. […] The distal part of the stylus was smooth and rounded in order to prevent perforation of the slice and the impact produced a focal injury with a diameter of 750±17 μm (mean±SD).
# After traumatizing the CA1 region, the culture trays were transferred to a small pressure chamber which contained a high-speed fan for rapid gas mixing. The pressure chamber was capable of maintaining a constant pressure of up to six atmospheres for several days. The pressure chamber was housed in an incubator which was set at 37° C. for normothermic experiments or 32° C. for experiments at moderate hypothermia. Subsequently, the pressure chamber (gas volume 0.925 litre) was flushed with humidified control gas (95% air and 5% CO2) for 5 min at 5 litres min^−1 which ensures better than 99.99% gas replacement. After flushing, the pressure chamber was sealed, and slices under these conditions were considered to be the “injury controls” (75% nitrogen/20% oxygen/5% CO2). […]
SMILES,"effect of added pressure of gas on development of total injury, highest added pressure","effect of added pressure of gas on development of total injury, low added pressures",predicted level of normalized injury after 72 hours,observed degree of normalized injury after 72 hours,"theoretical effect of increased gas level per se (effects of helium/pressure subtracted) (dashed line in FIG. 4, independent of the effects of pressure)","injury outcome with added nitrogen compared with added helium (nitrogen substituted for helium as added gas, all pressures 0.25-2 atm added, FIG. 4)"
[He] [helium],came back close to control levels,potent neuroprotection; also recorded: injury decreased,0.75,0.67±0.10,,
N#N [nitrogen],,,,,detrimental in a fashion that is roughly linear with increasing amounts,significantly worse injury outcome
[Xe] [xenon],toxicity; also recorded: significant neurotoxicity,marked neuroprotection,0.59,0.50±0.04,,
